From patent US20250108036A1, “COMPOSITIONS FOR REMOVING SENESCENT CELLS AND USES THEREOF” (LIFECEUTIX CO., LTD., priority 2021, published 2025)
Where two headings read alike, the source gives them in different places.

What was measured:
[1] = test system: foreskin cells in which senescence was induced by doxorubicin; test: CellTiter-Glo cell viability of doxorubicin-induced senescent foreskin cells (Examples 1-2, 10, 11, 13; Tables 4, 63, 65); type: cell-based, human; settings: for viability at 1.1 µM / viability at 10 µM: Homo sapiens, 72 h, read-out: Survival (%); for viability at 10 µM: LX-112 10 μM
Protocol: (§3) After 3 days, cell viability was measured using CellTiter-Glo Luminescent Cell Viability Assay (Promega) or light microscopy.

HMGN1 = HMGN1 ELISA in culture medium of foreskin cells (Examples 10, 11; Tables 62, 63, 64); type: cell-based, human; settings: for HMGN1 (pg/ml): senescent foreskin cells
senescent foreskin cells = test: survival of senescent foreskin cells treated with medium supernatant (secreted fluid) of compound-killed cells (Example 13, Tables 68, 69); type: cell-based, human; settings: for Survival (%): supernatant-treated cells: senescent cells, after 3 days
Protocol: as §3
During this additional culture, by checking with an optical microscope, etc., the medium supernatants containing secreted fluid from normally proliferating and senescent cells in which cell death was induced were obtained. The obtained medium supernatant was replaced with the medium of normally proliferating and senescent cells, respectively, and cell survival rate was measured after 3 days.

[2] = test system: foreskin cells in which senescence was not induced; test: CellTiter-Glo growth of foreskin cells in which senescence was not induced (Tables 5, 12); settings: 3 days
Protocol: as §3

p16 = p16 mRNA qRT-PCR in organ tissues of naturally aged mice (Example 7-2); type: in vivo, C57BL6J mice; settings: LX-112 70 mg/kg oral daily 21 days, aged untreated = 100%
Protocol: (§1) After 22-month-old female C57BL6J mice (purchased from KRIBB Laboratory Animal Resource Center) were adapted to the experimental environment for one week, the aged mice were randomized into an experimental group and a control group. 8-week-old mice that were not aged were used as controls. LX-112 was mixed with 0.5% CMC-Na solution (purchased from Sigma) and administered orally at a concentration of 70 mg/kg daily for 21 days. The control group was administered only the solution in the same volume. After drug administration was completed, the method described in each Example below was performed.
The mouse was sacrificed, RNA was extracted from the organ tissue of each region, and qRT-PCR was performed using the synthesized cDNA. Specifically, in order to maintain the quality of RNA during the RNA extraction process, the tissue from each collected area was immediately cut into 30 mg to 50 mg pieces, placed in RNA stabilization solution (purchased from Thermo Fisher Scientific), and absorbed into the tissue for 1 day. Afterwards, it was stored at −80° C. until use. The collected tissue was placed together with the lysate in a tube containing beads for tissue homogenization (purchased from MP Bio) and homogenized using tissue homogenization equipment (purchased from MP Bio). Total RNA was extracted from the homogenized tissues. The extraction method used an RNA extraction kit (PureLink RNA Mini Kit, purchased from Thermo Fisher Scientific) for soft tissues including liver, kidney, lung, and brain, or TRIzol Reagent (purchased from Thermo Fisher Scientific) for hard tissues including muscle, skin, fat, etc. The concentration of extracted total RNA was quantified using Nanodrop (purchased from Micro Digital) or SpectraMax iD3 Multi-Mode Microplate Reader (purchased from Molecular Device). Genomic DNA was removed from the extracted total RNA using a cDNA synthesis kit (purchased from Thermo Fisher Scientific), and cDNA was prepared. Using the synthesized cDNA, qRT-PCR was performed for each gene using the housekeeping gene β-actin as a standard, using Taqman Fast Abvanced Master Mix (purchased from Applied Biosystems), SFCgreen I qPCR Master Mix (purchased from SFC Probe), or AmfiSure qGreen qPCR Master Mix (purchased from GenDEPOT), and analyzed using the CFX Connect Real-Time PCR Detection System (purchased from Bio Rad). […] Table 22 calculates the amount of p16 mRNA after senescence was induced as 100% and compared it with the amount of p16 mRNA after treatment with LX-112. The primers used were synthesized through bionics, except that TaqMan primers (purchased from Thermo Fisher Scientific) were used for p16 and IL6.

lipofuscin = lipofuscin (Sudan Black B) staining of muscle of naturally aged mice (Example 7-4); type: in vivo, C57BL6J mice; settings: stained area, LX-112 70 mg/kg oral daily 21 days
Protocol: as §1
Mice was sacrificed and tissue sections from muscle tissue were prepared in the same manner as in Example 7-3. Lipofuscin is a degenerative abnormal complex of proteins and lipids produced in cell lysosomes with aging and is a marker of aging-related degeneration. The amount of lipofuscin was measured as follows: the sections were stained using Sudan Black B (purchased from Sigma) and photographed, and then the area of the stained area was calculated using the Image J program and quantified by normalizing it based on the total area.

[3] = skin aging (dermal thickness, collagen mRNA) in naturally aged mice (Example 7-9); type: in vivo, C57BL6J mice
Protocol: as §1
Frozen sections of skin tissue were stained with H/E (Hematoxylin/Eosin), and the thickness of the dermis was observed under an optical microscope. Additionally, the mRNA amount of collagen (COL1A1) was measured by qRT-PCR as described in Example 7-2.

p16, p21 = test: p16 and p21 mRNA qRT-PCR in obesity-aged (DIO) mice (Example 9-2); type: in vivo, C57BL6J mice; settings: LX-112 70 mg/kg oral daily 21 days, DIO without LX = 100%
Protocol: (§2) 15-week-old male C57BL6J mice (purchased from Jackson Laboratories), whose obesity was induced by a high-fat diet, were adapted to the experimental environment for one week, and then the mice were randomized into an experimental group and a control group. LX-112 was mixed with 0.5% CMC-Na solution (purchased from Sigma) and administered orally at a concentration of 70 mg/kg daily for 21 days. The control group was administered only the solution in the same volume. After drug administration was completed, the method described in each Example below was performed. Mice were sacrificed and the weight of adipose tissue in each area was measured.
Mice were sacrificed in the same manner as in Example 7-2, RNA was extracted from the organ tissue of each region, and qRT-PCR (quantitative real-time PCR) was performed and analyzed using the synthesized cDNA. […] Table 54 calculates the mRNA amounts of p16 and p21 after aging induced by obesity as 100% and compares them with the mRNA amounts of p16 and p21 after treatment with LX-112.

[4] = Oil Red O staining of liver of obesity-aged mice (Example 9-5); type: in vivo, C57BL6J mice; settings: stained area, LX-112 70 mg/kg oral daily 21 days, DIO without LX = 100%
Protocol: as §2
Table 60 calculates the stained area of Oil Red O after aging induced by obesity as 100% and compares it with the stained area of Oil Red O after treatment with LX-112.

## COC(=O)c1ccc([C@H]2c3[nH]c4ccccc4c3C[C@H](C(=O)OC)N2C(=O)CCl)cc1 [LX-405]
[1]; 30 μM, 3 days
  cell death, senescent cells: induced the death of most cells
[1]; 1.1 μM test compound, doxorubicin-induced senescent foreskin cells, CellTiter-Glo, 0 μM = 100
  viability at 1.1 µM: 4.9%
HMGN1; Homo sapiens, 30 μM test compound, doxorubicin-treated foreskin cells, DMSO = 100, read-out: HMGN1
  activity at 30 µM: 285%
Senescent foreskin cells; supernatant from compound-treated medium without cells (No Cells)
  Survival (%): 102.8 (±4.6) %
Senescent foreskin cells; supernatant from death-induced proliferating foreskin cells (compound 30 μM)
  Survival (%): 41.3 (±3.6) %
Senescent foreskin cells; supernatant from death-induced senescent foreskin cells (compound 30 μM)
  Survival (%): 52.7 (±0.1) %
[2]; 30 μM
  cell death, normally proliferating cells: induced the death of most cells

## O=c1c2ccccc2[se]n1CCn1[se]c2ccccc2c1=O [LX-112, 1,2-[bis(1,2-benzisoselenazolone-3(2H)-ketone)]ethane]
[1]; LX-112 1.1 μM, 3 days
  viability at 1.1 µM: 67.2%
[1]; LX-112 1.1 μM, senescent foreskin cells
  viability at 1.1 µM: 67.2%
[1]; 3 days
  viability at 10 µM: 1%
[1]; senescent foreskin cells
  viability at 10 µM: 1%
p16
  p16 mRNA (%) Brain: 89 (±5) %
  p16 mRNA (%) Kidney: 52 (±7.9) %
  p16 mRNA (%) Liver: 62 (±3.5) %
  p16 mRNA (%) Lung: 69 (±1) %
  p16 mRNA (%) Muscle: 76 (±3.1) %
  p16 mRNA (%) Skin: 74 (±6.7) %
  p16 mRNA (%) eWAT: 79 (±2) %
lipofuscin
  Lipofuscin (%) Muscle: 71 (±6) %
[3]; COL1A1, skin, LX-112, aged untreated = 1
  Collagen mRNA (Fold): 2.3 (±0.4) Fold
[3]; LX-112 70 mg/kg oral daily 21 days
  Dermal Thickness (μm): 265 (±17.2) μm
p16, p21
  p16 mRNA (%) Liver: 71.3%
  p16 mRNA (%) Lung: 81%
  p16 mRNA (%) Muscle: 77.8%
  p16 mRNA (%) Skin: 79.1%
  p16 mRNA (%) asWAT: 84.1%
  p16 mRNA (%) eWAT: 61.2%
  p16 mRNA (%) iBAT: 89.2%
  p16 mRNA (%) iWAT: 79.1%
  p21 mRNA (%) Liver: 62.9%
  p21 mRNA (%) Lung: 79.3%
  p21 mRNA (%) Muscle: 73.2%
  p21 mRNA (%) Skin: 78.1%
  p21 mRNA (%) asWAT: 82.1%
  p21 mRNA (%) eWAT: 67.2%
  p21 mRNA (%) iBAT: 70%
  p21 mRNA (%) iWAT: 71.2%
[4]
  Oil Red O (%): 74 (±7.3) %
HMGN1; 10 μM, culture medium after 6 hours
  HMGN1 (pg/ml): 262.45 (±23.4) pg/ml
HMGN1; ABT-263 1 μM or LX-112 10 μM, 6 hours
  HMGN1 secreted in the culture medium from dying senescent cells: greatly increased
HMGN1; LX-112 1.1 μM
  HMGN1 (pg/ml): 129.7(±9.3) pg/ml
HMGN1; LX-112 10 μM
  HMGN1 (pg/ml): 262.45 (±23.4) pg/ml
Senescent foreskin cells; supernatant from normally proliferating or senescent cells, survival after 3 days
  death of senescent cells by medium supernatant (secreted fluid) of cells killed by the compound: selectively induced the death of senescent cells
[2]; Table 5, LX-112 1.1 μM, N0 (cell number before treatment) = 100%
  Growth (%): 201 (±8) %
[2]; Table 5, LX-112 10 μM, N0 = 100%
  Growth (%): 123 (±8) %
[2]; Table 12, LX-112 1.1 μM, N0 = 100%
  Growth (%): 206 (±15) %
[2]; Table 12, LX-112 10 μM, N0 = 100%
  Growth (%): 122.7 (±16) %
